Measured values published in US20080226596A1, “Therapeutic compositions and methods useful in treating hepatitis” (priority 2006, published 2008).

How the values were obtained:
WM9 cells = experiment: WM9 melanoma cell growth, MTT assay; type: cell-based, human
Description: For cell proliferation assays, cells were grown in 10% FCS culture medium containing various amounts of IFNs and/or sodium stibogluconate in 96 well plates and cultured at 37° C. for 3 or 6 days as indicated. The numbers of viable cells in proliferation assays were determined by MTT assays as described in Phatak et al., J. Immunol. 167, 3391 (2001).
Dose response curves were generated for each drug alone, and also the combinations. Median effect plots were generated for IFNs alone, sodium stibogluconate alone, and the combination. The combination index (CI) was determined and plotted vs. fraction affected (FA). Data were analyzed in both modes, mutually exclusive and mutually nonexclusive. The interaction between two mutually nonexclusive drugs is described by the Equation CI=D1/Dx1+D2/Dx2+D1D2/Dx1Dx2, where Dx1 and Dx2 are the doses of drug 1 and drug 2 that are required to inhibit growth x %. […] When CI<1, drugs are synergistic, when CI=1, drugs are additive, and when CI>1, drugs are antagonistic.
Renca (Murphy, G. P., and W. J. Hrushesky. 1973. A murine renal cell carcinoma. J Natl Cancer Inst 50:1013), Jurkat (Gillis, S., and J. Watson. 1980. Biochemical and biological characterization of lymphocyte regulatory molecules. V. Identification of an interleukin 2-producing human leukemia T cell line. J Exp Med 152:1709) and WM9 (Forsberg, K., I. Valyi-Nagy, C. H. Heldin, M. Herlyn, and B. Westermark. 1993. Platelet-derived growth factor (PDGF) in oncogenesis: development of a vascular connective tissue stroma in xenotransplanted human melanoma producing PDGF-BB. Proc Natl Acad Sci USA 90:393) cell lines were obtained from a colleague at the Cleveland Clinic Foundation (CCF) and cultured in RPMI 1640 medium supplemented with 10% fetal calf serum (FCS). […] SSG has been described previously (Yi, T., M. K. Pathak, D. J. Lindner, M. E. Ketterer, C. Farver, and E. C. Borden. 2002. Anticancer activity of sodium stibogluconate in synergy with IFNs. J Immunol 169:5978).
NIH3T3 (Yi, et al., Blood 85, 87 (1995)), WM9 (Forsberg, et al., Proc. Nat. Acad Sci. USA 90, 393 (1993)), DU145 (Mickey, et al., Cancer Res. 37, 4049 (1977)), LoVo (Drewinko, et al., Cancer Res. 36, 467 (1976)), HEY (Buick, et al., Cancer Res. 45, 3668 (1985)), U251 (Yoshida, et al., Cancer 50, 410 (1982)), A549 (Giard, et al., J. Natl. Cancer Inst. 51, 1417 (1973)) and SK-N-SH (Helson, et al., Cancer Res. 35, 2594 (1975)) cell lines have been described and were cultured in RPMI 1640 supplemented with 10% fetal calf serum (FCS). For measurement of sodium stibogluconate effects on cell growth in vitro, cells were cultured in the absence (−) or presence (+) of various amounts of sodium stibogluconate for 6 days with viable cells quantified by MTT assays (Mosmann, J. Immunol. Methods 65, 55 (1983)). Percentages of growth inhibition by sodium stibogluconate were calculated (.+−.x

PRL-1 = biological target: T1, PRL-1 (Homo sapiens, UniProt Q93096); experiment: In vitro PTPase assay, recombinant PRL-1; type: biochemical; details: 0.1-100 μg/ml
T1 construct: GST (N); made in house; host or cells: DHSa (DH5a) bacteria
Description: Sodium stibogluconate, suramin, sodium orthovanadate and GST fusion protein of SHP-1 have been described previously (Pathak et al., J. Imumol. 167, 3391 (2001)). Meglumine antimonate was obtained from Aventis. cDNAs of human PRL-1, PRL-2 and PRL-3 coding region were derived by RT-PCR from H9 cells (Safai, et al., Lancet 1, 1438 (1984)) and inserted in frame into the pGEX vector. cDNA of PRL-1R86 was generated by recombinant DNA technique using PRL-1 cDNA as template following established procedures (Jiao, et al., Mol. Cell. Biol. 16, 6985 (1996)). […]
In vitro PTPase assays were used to determine the effects of compounds on recombinant PTPases, following established procedures using a synthetic phosphotyrosine peptide or DiFMUP as the substrate (Pathak et al., J. Imumol. 167, 3391 (2001)). […] PTPase activity of individual reactions was measured by adding 100 µL of malachite green solution (UBI) and then quantifying the amounts of free phosphate cleaved by the PTPase from the peptide substrate by spectrometry (OD660 nm). […] Relative PTPase activities were calculated based on the formula: (PTPase activity in the presence of an inhibitory compound/PTPase activity in the absence of the compound)× 100%. […]

T1 sequence (Q93096 whole entry): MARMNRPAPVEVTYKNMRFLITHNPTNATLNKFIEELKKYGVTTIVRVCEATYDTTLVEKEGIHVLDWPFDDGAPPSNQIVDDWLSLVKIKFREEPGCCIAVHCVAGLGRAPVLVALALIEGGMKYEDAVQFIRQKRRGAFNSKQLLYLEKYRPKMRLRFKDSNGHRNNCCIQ

| Compound | effect on IFN-alpha activity against WM9 (WM9 cells; ketoconazole 40 μg/ml) | activity against WM9 cells (WM9 cells; ketoconazole 0.625-20 μg/ml, single agent or with IFN-alpha) | PRL-1 PTPase activity retained (PRL-1) | IFN-alpha-induced growth inhibition of WM9 with pentamidine (WM9 cells; most obviously at 0.625-1.25 μg/ml) | WM9 cell growth (WM9 cells; SSG, 6 days, comparable conditions to Renca) | killing of WM9 cells (WM9 cells; single agent, 50 and 100 μg/ml, day 6) |
| --- | --- | --- | --- | --- | --- | --- |
| CC(=O)N1CCN(c2ccc(OCC3COC(Cn4ccnc4)(c4ccc(Cl)cc4Cl)O3)cc2)CC1 (stereo not shown) [ketoconazole] | minor augmenting effect on IFN-alpha activity | no apparent activity | 60-70% | – | – | – |
| N=C(N)c1ccc(OCCCCCOc2ccc(C(=N)N)cc2)cc1 [pentamidine] | – | – | 70-80% | augmented IFN-alpha-induced growth inhibition | – | – |
| O.O.O.O.O.O.O.O.O.O=C([O-])[C@@H]1[O][Sb]2([O-])([O][Sb]34([OH])[O][C@H]([C@H](O)CO)[C@H]([O]3)[C@H](C(=O)[O-])[O]4)[O][C@H]([C@H](O)CO)[C@@H]1[O]2.[Na+].[Na+].[Na+] [sodium stibogluconate] | – | – | – | – | inhibited by SSG in a dose-dependent manner | killed all cells |
